Measured values: PubChem BioAssay AID248 (DTP/NCI, 2004)
Where “and” joins values, the source holds several entries; their conditions need not be identical. Identical values can stand only once. Inconclusive results and toxic doses are left out. Square brackets hold non-standard residues; d marks the D form. Peptide text beside a SMILES is read from it. ξ: configuration not given here. ξE = NC(CCC(=O)O)C(=O)O

System: L1210 leukemia ip in BDF1 mice, survival T/C
Test: NCI In Vivo Anticancer Drug Screen. Data for tumor model L1210 Leukemia (intraperitoneal) in B6D2F1 (BDF1) mice
Details: endpoint: mean survival time, higher = longer survival
How it was run: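 Antitumor effect is assessed in tumor-bearing animals. Survival in the compound arm is compared with a vehicle-dosed control arm and expressed as their quotient.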

[1] = dose: 100.0 mg/kg/injection, schedule: Q01DX009 (ip), vehicle: Klucel (hydroxypropylcellulose) (HPC)
[2] = dose: 100.0 mg/kg/injection, schedule: Q04DX002 (ip), vehicle: Klucel (hydroxypropylcellulose) (HPC)
[3] = dose: 200.0 mg/kg/injection, schedule: Q01DX009 (ip), vehicle: Klucel (hydroxypropylcellulose) (HPC)
[4] = dose: 200.0 mg/kg/injection, schedule: Q04DX002 (ip), vehicle: Klucel (hydroxypropylcellulose) (HPC)
[5] = dose: 400.0 mg/kg/injection, schedule: Q04DX002 (ip), vehicle: Klucel (hydroxypropylcellulose) (HPC)
[6] = dose: 100.0 mg/kg/injection, schedule: Q04DX003 (ip), vehicle: saline with Tween-80
[7] = dose: 12.5 mg/kg/injection, schedule: Q01DX009 (ip), vehicle: Klucel (hydroxypropylcellulose) (HPC)
[8] = dose: 25.0 mg/kg/injection, schedule: Q01DX009 (ip), vehicle: Klucel (hydroxypropylcellulose) (HPC)
[9] = dose: 50.0 mg/kg/injection, schedule: Q01DX009 (ip), vehicle: Klucel (hydroxypropylcellulose) (HPC)
[10] = dose: 100.0 mg/kg/injection, schedule: Q04DX003 (ip), vehicle: Klucel (hydroxypropylcellulose) (HPC)
[11] = dose: 200.0 mg/kg/injection, schedule: Q04DX003 (ip), vehicle: Klucel (hydroxypropylcellulose) (HPC)
[12] = dose: 100.0 mg/kg/injection, schedule: Q04DX002 (ip), vehicle: saline
[13] = dose: 200.0 mg/kg/injection, schedule: Q04DX002 (ip), vehicle: saline
[14] = dose: 50.0 mg/kg/injection, schedule: Q01DX001 (ip), vehicle: carboxymethylcellulose (CMC)
[15] = dose: 100.0 mg/kg/injection, schedule: Q01DX001 (ip), vehicle: carboxymethylcellulose (CMC)
[16] = dose: 200.0 mg/kg/injection, schedule: Q01DX001 (ip), vehicle: carboxymethylcellulose (CMC)
[17] = dose: 400.0 mg/kg/injection, schedule: Q01DX001 (ip), vehicle: carboxymethylcellulose (CMC)

For O=NN(CCF)C(=O)NC1CCSc2ccccc21 (centres undefined), the T/C (dose: 6.0 mg/kg/injection, schedule: Q01DX001 (ip), vehicle: other) was 109 % of control, the T/C (dose: 9.0 mg/kg/injection, schedule: Q01DX001 (ip), vehicle: other) was 120 % of control and the T/C (dose: 20.0 mg/kg/injection, schedule: Q01DX001 (ip), vehicle: other) was 161 % of control. The T/C (dose: 30.0 mg/kg/injection, schedule: Q01DX001 (ip), vehicle: other) was 289 % of control.
C1CCC(N(CCN(C2CCCCC2)C2CCCCC2)C2CCCCC2)CC1 was tested, and the T/C (dose: 25.0 mg/kg/injection, schedule: Q04DX013 (ip), vehicle: carboxymethylcellulose (CMC)) was 100 % of control, the T/C (dose: 50.0 mg/kg/injection, schedule: Q04DX013 (ip), vehicle: carboxymethylcellulose (CMC)) was 94 % of control and the T/C (dose: 100.0 mg/kg/injection, schedule: Q04DX013 (ip), vehicle: carboxymethylcellulose (CMC)) was 96 % of control.
C=C(C)COc1ccccc1 was tested, and the T/C (dose: 100.0 mg/kg/injection, schedule: Q01DX005 (ip), vehicle: Klucel (hydroxypropylcellulose) (HPC)) was 101 % of control, the T/C [1] was 100 % of control and the T/C [2] was 100 % of control. For the same molecule, the T/C (dose: 200.0 mg/kg/injection, schedule: Q01DX005 (ip), vehicle: Klucel (hydroxypropylcellulose) (HPC)) was 108 % of control, the T/C [3] was 102 % of control and the T/C [4] was 100 % of control. The T/C (dose: 400.0 mg/kg/injection, schedule: Q01DX005 (ip), vehicle: Klucel (hydroxypropylcellulose) (HPC)) was 97 % of control and the T/C [5] was 107 % of control.
For ClCCNCc1cccc(Nc2ccnc3cc(Cl)ccc23)c1, the T/C (dose: 75.0 mg/kg/injection, schedule: Q01DX001 (ip), vehicle: carboxymethylcellulose (CMC)) was 103 % of control and the T/C (dose: 150.0 mg/kg/injection, schedule: Q01DX001 (ip), vehicle: carboxymethylcellulose (CMC)) was 95 % of control.
For CCOC(=O)c1ncn(-c2ccccc2)c1C(=O)OCC, the T/C (dose: 100.0 mg/kg/injection, schedule: Q04DX002 (ip), vehicle: carboxymethylcellulose (CMC)) was 100 % of control, the T/C (dose: 100.0 mg/kg/injection, schedule: Q04DX003 (ip), vehicle: carboxymethylcellulose (CMC)) was 96 % of control and 100 % of control and the T/C (dose: 200.0 mg/kg/injection, schedule: Q04DX002 (ip), vehicle: carboxymethylcellulose (CMC)) was 97 % of control and 104 % of control. For the same molecule, the T/C (dose: 200.0 mg/kg/injection, schedule: Q04DX003 (ip), vehicle: carboxymethylcellulose (CMC)) was 96 % of control and 101 % of control, the T/C (dose: 400.0 mg/kg/injection, schedule: Q04DX002 (ip), vehicle: carboxymethylcellulose (CMC)) was 94 % of control and 86 % of control and the T/C (dose: 400.0 mg/kg/injection, schedule: Q04DX003 (ip), vehicle: carboxymethylcellulose (CMC)) was 94 % of control and 92 % of control.
CC1NC=NC1C(c1ccccc1)c1ccccc1 (centres undefined) was tested, and the T/C [6] was 101 % of control.
In the case of O=Cc1cc(O)c(O)c(Br)c1, the T/C (dose: 75.0 mg/kg/injection, schedule: Q04DX003 (ip), vehicle: saline) is reported as 100 % of control, the T/C (dose: 150.0 mg/kg/injection, schedule: Q04DX003 (ip), vehicle: saline) is reported as 87 % of control and the T/C (dose: 300.0 mg/kg/injection, schedule: Q04DX003 (ip), vehicle: saline) is reported as 98 % of control.
In the case of CCNc1ncnc2c1c(C(N)=S)cn2C1OC(CO)C(O)C1O (centres undefined), the T/C (dose: 12.5 mg/kg/injection, schedule: Q01DX005 (ip), vehicle: saline) is reported as 111 % of control and 113 % of control, the T/C [7] is reported as 109 % of control and the T/C (dose: 12.5 mg/kg/injection, schedule: Q01DX009 (ip), vehicle: saline) is reported as 111 % of control. For the same molecule, the T/C (dose: 25.0 mg/kg/injection, schedule: Q01DX005 (ip), vehicle: saline) was 105 % of control and 124 % of control, the T/C [8] was 91 % of control and the T/C (dose: 25.0 mg/kg/injection, schedule: Q01DX009 (ip), vehicle: saline) was 112 % of control.
With NC(=O)C1(N2CCCC2)CCN(Cc2ccccc2)CC1 the T/C [9] was 94 % of control, the T/C [1] was 97 % of control and the T/C [10] was 96 % of control. For the same molecule, the T/C [3] was 90 % of control and the T/C [11] was 93 % of control.
For O=[N+]([O-])c1ccc(/C=C/C=C\c2ccc(S(=O)(=O)F)cc2Cl)cc1, the T/C [10] was 96 % of control, the T/C [11] was 92 % of control and the T/C (dose: 400.0 mg/kg/injection, schedule: Q04DX003 (ip), vehicle: Klucel (hydroxypropylcellulose) (HPC)) was 96 % of control.
COc1cc(C=Nc2ccc3c(c2)Cc2ccccc2-3)ccc1O was tested, and the T/C (dose: 100.0 mg/kg/injection, schedule: Q04DX003 (ip), vehicle: saline sonified) was 94 % of control, the T/C (dose: 200.0 mg/kg/injection, schedule: Q04DX003 (ip), vehicle: saline sonified) was 97 % of control and the T/C (dose: 400.0 mg/kg/injection, schedule: Q04DX003 (ip), vehicle: saline sonified) was 95 % of control.
CC1(C)C2CCCC1(CCOC(=O)COc1cc(Cl)c(Cl)cc1Cl)C2 (centres undefined) was tested, and the T/C [2] was 98 % of control, the T/C [4] was 91 % of control and the T/C [5] was 88 % of control.
In the case of CN(C)C(=O)OC(C)(C)C, the T/C [12] is reported as 97 % of control, the T/C [13] is reported as 101 % of control and the T/C (dose: 400.0 mg/kg/injection, schedule: Q04DX002 (ip), vehicle: saline) is reported as 97 % of control.
With CC1(C)OC2OC(CO)C(O)C2O1 (centres undefined) the T/C (dose: 100.0 mg/kg/injection, schedule: Q01DX001 (ip), vehicle: saline) was 101 % of control, the T/C (dose: 200.0 mg/kg/injection, schedule: Q01DX001 (ip), vehicle: saline) was 97 % of control and the T/C (dose: 400.0 mg/kg/injection, schedule: Q01DX001 (ip), vehicle: saline) was 98 % of control.
With CCCCCCCCCCCCOc1ccc(C(=O)CC(=O)OCC)cc1 the T/C (dose: 100.0 mg/kg/injection, schedule: Q01DX001 (ip), vehicle: acetone) was 95 % of control, the T/C (dose: 200.0 mg/kg/injection, schedule: Q01DX001 (ip), vehicle: acetone) was 100 % of control and the T/C (dose: 200.0 mg/kg/injection, schedule: Q04DX003 (ip), vehicle: saline) was 90 % of control. For the same molecule, the T/C (dose: 400.0 mg/kg/injection, schedule: Q01DX001 (ip), vehicle: acetone) was 108 % of control and the T/C (dose: 400.0 mg/kg/injection, schedule: Q04DX003 (ip), vehicle: saline) was 89 % of control.
For C=CCC(OC(=O)Nc1ccc(Cl)cc1)C1OC(c2ccccc2)OC2COC(c3ccccc3)OC21 (centres undefined), the T/C (dose: 100.0 mg/kg/injection, schedule: Q01DX001 (ip), vehicle: gum acacia) was 91 % of control, the T/C (dose: 200.0 mg/kg/injection, schedule: Q01DX001 (ip), vehicle: gum acacia) was 91 % of control and the T/C (dose: 400.0 mg/kg/injection, schedule: Q01DX001 (ip), vehicle: gum acacia) was 93 % of control.
NCC(=O)NC(CCC(=O)O)C(=O)O (centres undefined) (H-Gly-[ξE]-OH) was tested, and the T/C (dose: 50.0 mg/kg/injection, schedule: Q04DX002 (ip), vehicle: saline) was 89 % of control, the T/C [12] was 104 % of control and the T/C [13] was 93 % of control.
For CCc1c(C#N)oc2ccc(O)cc12, the T/C [1] was 96 % of control, the T/C [2] was 95 % of control and the T/C [3] was 91 % of control. The T/C [4] was 101 % of control and the T/C [5] was 95 % of control.
With O=c1[nH]c2ccccc2c(C(Cl)(Cl)Cl)c1Cl the T/C [7] was 93 % of control, the T/C [8] was 90 % of control and the T/C [9] was 100 % of control and 108 % of control. The T/C [1] was 93 % of control.
CCCC(CCCC(=O)O)C(=O)O (centres undefined) was tested, and the T/C [14] was 86 % of control, the T/C [15] was 90 % of control and the T/C [16] was 92 % of control. The T/C [17] was 90 % of control.
CC1=CCCCC1Oc1ccccc1 (centres undefined) was tested, and the T/C [6] was 104 % of control, the T/C (dose: 200.0 mg/kg/injection, schedule: Q04DX003 (ip), vehicle: saline with Tween-80) was 96 % of control and the T/C (dose: 400.0 mg/kg/injection, schedule: Q04DX003 (ip), vehicle: saline with Tween-80) was 109 % of control.
For CCCC(O)CN (centres undefined), the T/C [14] was 98 % of control, the T/C [15] was 102 % of control and the T/C [16] was 104 % of control. The T/C [17] was 116 % of control.
